Results taken from US4053632A, “Compounds of spiro-amine type and methods for their use” (priority 1971, dated 1977).
Entries after “also recorded” stand apart in the source; their conditions may differ. Read-outs that look alike come from different tables or passages of the source.

Legend:
[1] = system: uptake of 5-HT (midbrain slices); test: Inhibition of the uptake of tritiated 5-HT in vitro (brain slices); assay type: biochemical, mouse
[2] = system: uptake of noradrenaline (cortex slices); test: Inhibition of the uptake of tritiated noradrenaline in vitro (brain slices); assay type: biochemical; conditions: dl-noradrenaline 10^-7 M
[3] = system: uptake of 5-HT (midbrain slices); test: Inhibition of the uptake of tritiated 5-HT in vivo; design: species or system mouse; conditions: for ED50: Mus musculus, ip, 0.5 h, i.p., in vivo, read-out: Inhibition (50 %) of uptake in vivo, 5-HT
Protocol: The drugs were administered intraperitoneally half an hour before the animals were killed and the midbrain was taken out and sliced and incubated in a mixture consisting of, per 100 mg of brain slices, 0.2 μmole of ^3 H-5-HT and 1 μmole of glucose in 2 ml of Krebs-Henseleit buffer, pH 7.4. The incubation time was 5 minutes with 5 minutes of preincubation before ^3 H-5-HT was added. The radioactive ^3 H-5-HT taken up in the slices was extracted with ethanol and the amount was determined by liquid scintillation. The dose producing 50 per cent decrease of the active uptake (ED50) was determined graphically from dose response curves. Active uptake is defined as that part of the radioactive uptake which is inhibited by a high concentration of cocaine. All doses were given at least to four animals.

[4] = system: uptake of noradrenaline (cortex slices); test: Inhibition of the uptake of tritiated noradrenaline in vivo; conditions: for ED50: ip, read-out: Inhibition (50 %) of uptake in vivo, NA; for effectiveness in blocking the uptake of noradrenaline in vivo relative to imipramine: versus imipramine
Protocol: The animals were killed half or one hour after the administration of the drugs in vivo (i.p.). The slices, made from cortex, were preincubated for five minutes and incubated with 0.1 μmole per ml of ^3 H-noradrenaline for further five minutes. The incubation mixture consisted of 0.2 μmole of ^3 H-NA and the brain slices in 2 ml of Krebs-Henseleits buffer, pH 7.4. The radioactive ^3 H-NA taken up in the slices was extracted with ethanol and the amount was determined by liquid scintillation. The dose producing 50 per cent decrease of the active uptake (ED50) was determined graphically from dose response curves. At least four animals were used at each dose level.

[5] = system: 5-HTP response; test: 5-HTP response potentiation test; assay type: in vivo, mouse; conditions: for minimal effective dose: Mus musculus, ip
Protocol: These small movements are quantitatively measured in an activity box, type Animex, which can distinguish between small and gross movements. The activity is measured during 20 minutes and only in the case the animals have a fullblown syndrome.

[6] = system: l-Dopa response; test: Dopa response potentiation test; assay type: in vivo, mouse
Protocol: This test is developed by G.M. Everett (Antidepressant drugs,[…] in groups of 3 are pretreated with Pargyline ®40 l mg/kg p.o. about 10-16 hours before the test. […] 1. piloerection, slight salivation, slight increased motor activity 2. piloerection, salivation, marked increased motor activity and irritability 3. piloerection, profuse salivation, marked irritability and reactivity, jumping, squeaking, fighting.

[7] = system: motor activity; test: Motor activity in mice; assay type: in vivo, mouse; conditions: for ED50: Mus musculus, 1 h; for ED50 / sedation (motor activity) versus CPZ: mice
Protocol: The exploratory activity of mice was recorded in a locomotion cage in which the movements were counted each time the animals cross-circuits on electrical current in the bottom plate. […] The animals were tested individually. Groups of six mice were used and the mice were only used once. The activity was expressed in percent of the activity of control groups ran simultaneously.
Sedative activity was defined as suppression of normal motor activity. The motor activity in mice was automatically recorded in a locomotion cage in which the movements are counted each time the animal short-circuits an electrical current in the bottom plate. […] The animals were tested individually. Groups of six mice were used. The activity was expressed in percent of the activity of control groups run simultaneously.

[8] = system: rabbits; test: Drug induced arrhythmias in rabbits; assay type: in vivo, rabbit
Text: Test drugs were intravenously administered to male rabbits anesthesized wth amytal. The doses were increased stepwise up to the lethal dose and the first dose which induced arrhythmia was noted.

[9] = system: pupil width (mydriasis); conditions: mouse, in vivo; for Peripheral anti-cholinergic action PD200 / PD200 (Table 4): iv, 10 min
Protocol: (§1) The compounds were given by intravenous route to 3 mice. […] Seizures, gait, sedation and grip strength were recorded.
(§2) Acute toxicity was tested by the intraveneous, intraperitoneal and oral routes of administration. […] During the oral route a behavioral scoring system was used in order to relate changes in behavior to dose. The LD50 values were determined graphically from log dose -- response curves based on four doses with three animals per dose. Peripheral parasympatholytic effect was tested in mice by observing the mydriatic effect after intravenous injection (9) (four doses with three animals per dose). PD200 refers to the dose which increases the pupil width by 200%.

[10] = in vivo; conditions: mouse
Protocol: as §1, §2

[11] = system: conditioned avoidance response (CAR); test: Conditioned avoidance response in rats; assay type: in vivo, rat; conditions: rat; for CAR CD50: i.p., 60 min; for effect on conditioned avoidance response: in words
Protocol: For this reason the conditioned avoidance test has been developed for initial screening of neuroleptics. Rats were trained to avoid electrical shock by jumping from one compartment to the other in a shuttle box. The conditioned stimulus consists of an auditory signal which after eight seconds was followed by the electrical shock. The rates were trained to a criterion of making eight out of ten responses correctly. The drugs were injected one hour before the test. The avoidance responses are expressed in percentage of those before administration. CD50 is the dose which reduces the avoidance response to 50% of control values.

[12] = system: pupil width (mydriasis); test: Peripheral anticholinergic (parasympatholytic) effect, mydriasis in mice; conditions: for Peripheral anti-cholinergic action PD200: i.v., dose increasing the pupil by 200%
Protocol: as §1, §2

[13] = system: mice; test: Acute toxicity in mice; conditions: in words
Protocol: as §1, §2

[14] = Mus musculus, ip; read-out: Potentiation of l-Dopa, effective dose
[15] = ip, i.p., read-out: Motor activity ID50 (Table 4)

Row | SMILES | Inhibition (50 %) of uptake in vitro, 5-HT [1] [µg/mL] | Inhibition (50 %) of uptake in vitro, NA [2] [µg/mL] | ED50 [3] [mg/kg] | ED50 [4] [mg/kg] | minimal effective dose [5] [mg/kg] | minimal effective dose [6, 14] [mg/kg] | ED50 ([7]; read-out: Motor activity ID50) [mg/kg] | Peripheral anti-cholinergic action PD200 [9] [mg/kg] | LD50 at 24 h ([10]; iv) [mg/kg] | Peripheral anti-cholinergic action PD200 [12] [mg/kg] | further results
1 | NC1C=CC2(CC1)c1ccccc1C=Cc1ccccc12 (stereo not drawn) [CPG 186] | > 10 | 1.5 | 28 | 14 | 25 | > 10 | > 50 | > 25 | 25 |  | blocking the uptake of 5-HT in vivo versus imipramine ([3]; in words): blocks the uptake of 5-HT in equivalent doses; sedation / tranquilizing effect ([7]; in words): gave sedation only in high doses; arrhythmia in rabbits ([8]; nonlethal doses, in words): did not cause arrhythmia in nonlethal doses in rabbits; Arrythmia (rabbit), accumulated i.v. dose where there are signs of arrythmia ([8]; rabbit, in vivo, iv): > 10; anticholinergic effects [9]: devoid of the anticholinergic effects
2 | CN(C)C1C=CC2(CC1)c1ccccc1CCc1ccc(Cl)cc12 (stereo not drawn) [SIR 125] |  |  |  |  |  |  |  |  |  |  | CAR CD50 [11]: < 2.5 mg/kg; effect on conditioned avoidance response [11]: more potent than the racemate SIR 109 and also more potent than CPZ; also recorded: more potent than both SIR 109 and chlorpromazine; effect on conditioned avoidance response ([11]; listed as β-isomer): the biological activity mainly originates from the β-isomer
3 | CNC1C=CC2(CC1)c1ccccc1C=Cc1ccccc12 (stereo not drawn) [CPG 264] | 1.3 | 0.3 | > 40 | 1.3 | > 25 | > 10 | 13 |  | 25 | 2.5 | effectiveness in blocking the uptake of noradrenaline in vivo relative to imipramine [4]: about three times as effective as imipramine
4 | CN(C)C1CCC2(CC1)c1ccccc1C=Cc1ccccc12 [CPG 147] | 4 | 0.05 | > 40 | 1.5 | > 25 | 2.5 | 27 |  | 32 | 1 | effectiveness in blocking the uptake of noradrenaline in vivo relative to imipramine [4]: about three times as effective as imipramine
5 | NC1CCC2(CC1)c1ccccc1C=Cc1ccccc12 [CPG 191] | 2 | 1.5 | > 40 | > 40 | > 25 | > 10 | 53 | < 10 | 32 |  | 
6 | CN(C)C1CCC2(CC1)c1ccccc1C=Cc1ccc(Cl)cc12 (stereo not drawn) [SIR 118] | 4 | 1.5 | > 40 | > 40 | > 25 | > 10 | 11 | 9 | 18 |  | ED50 [7, 15]: 11 mg/kg; sedation (motor activity) versus CPZ ([7]; in words): somewhat less active; acute toxicity versus CPZ [13]: intravenous toxicity in the same range as CPZ
7 | CN(C)CCCN1c2ccccc2CCc2ccccc21 [Imipramine, reference compound] | 0.1 | 0.06 | 24 | 6 | 25 |  | 45 |  |  | 13 | potentiation of dl-5-HTP ([5]; reference, in words): constantly potentiated dl-5-HTP; minimal effective dose ([6]; Mus musculus, ip, read-out: Potentiation of l-Dopa, effective dose): 10 mg/kg; anticholinergic effects ([12]; in words): anticholinergic effects shared by imipramine
8 | CN(C)C1C=CC2(CC1)c1ccccc1C=Cc1ccc(Cl)cc12 (stereo not drawn) [SIR 114] | 7 | 2.5 | > 40 | > 40 | > 25 | > 10 | 5.5 | 15 | 22 |  | ED50 [7, 15]: 5.5 mg/kg; sedation (motor activity) versus CPZ ([7]; in words): caused sedation in the mice at about the same dose as CPZ; PD200 (Table 4) [9]: 15 mg/kg; LD50 at 24 h ([10]; ip): 130 mg/kg; acute toxicity versus CPZ [13]: intravenous toxicity in the same range as CPZ
9 | CN(C)C1CCC2(CC1)c1ccccc1CCc1ccc(Cl)cc12 (stereo not drawn) [SIR 117] | 5 | 1.5 | > 40 | > 40 | > 25 | > 10 | 14 | 15 | 27 |  | ED50 [7, 15]: 14 mg/kg; sedation (motor activity) versus CPZ ([7]; in words): somewhat less active; PD200 (Table 4) [9]: 15 mg/kg; acute toxicity versus CPZ [13]: intravenous toxicity in the same range as CPZ
10 | CN(C)C1C=CC2(CC1)c1ccccc1C=Cc1ccccc12 (stereo not drawn) [CPG 146] | 4 | 0.02 | > 40 | 1.7 |  |  |  |  | 30 | 1 | effectiveness in blocking the uptake of noradrenaline in vivo relative to imipramine [4]: about three times as effective as imipramine
11 | CN(C)C1C=CC2(CC1)c1ccccc1CCc1ccc(Cl)cc12 (stereo not drawn) [SIR 124] |  |  |  |  |  |  |  |  |  |  | CAR CD50 [11]: > 10 mg/kg; effect on conditioned avoidance response [11]: relatively weak effect on CAR
12 | CN(C)CCC=C1c2ccccc2CCc2ccccc21 [Amitriptyline, reference compound] |  |  |  |  |  |  |  |  |  |  | l-Dopa syndrome score ([6]; 20 mg/kg i.p. 4 hours before l-Dopa): three
13 | CNC1CCC2(CC1)c1ccccc1C=Cc1ccccc12 [CPG 148] | 3 | 1.5 | > 40 | > 40 | > 25 | > 10 | 35 |  | 60 | 3.5 | 
